The supplement of paper PMC10331698
± gives the standard deviation of the averaged measurements.

Legend:
Experiment in all cases: level (log10 ratio to DMSO vehicle control); higher = higher biomarker level / cell amount than vehicle control
[1] = compound: C=C(C)C(=O)OCCC(F)(F)C(F)(F)C(F)(F)C(F)(F)C(F)(F)C(F)(F)F [6:2 Fluorotelomer methacrylate]; settings: in DMSO
Procedure: (§1)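 BioMAP Diversity Plus panel of 12 human primary cell co-culture systems (3C, 4H, LPS, SAg, BT, BF4T, BE3C, CASM3C, HDF3CGF, KF3CT, MyoF, Mphg). Compounds were added 1 h before stimulation and left for 24 h (MyoF 48 h; BT 72 h for soluble read-outs or 6 d for IgG). Biomarkers were read by ELISA, cytotoxicity by SRB, PBMC viability and proliferation by Alamar Blue. Each well value was divided by the mean of 8 DMSO control wells on the same plate and log10 transformed; duplicate blinded samples were tested at 4 concentrations.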

[2] = compound: C=CC(=O)OCC(F)(F)C(F)(F)C(F)(F)COC(=O)C=C [1H,1H,5H,5H-Perfluoro-1,5-pentanediol diacrylate]; settings: 6700 nM; in DMSO
Procedure: as §1

[3] = compound: FC(F)(F)C(F)(F)C(F)(F)C(F)(F)C(F)(F)C(F)(F)CC1CO1 [3-(Perfluorohexyl)-1,2-epoxypropane]; settings: in DMSO
Procedure: as §1

[4] = compound: FC(F)(F)C(F)(F)C(F)(F)CC1CO1 [1H,1H-Heptafluorobutyl epoxide]; settings: in DMSO
Procedure: as §1

[5] = compound: NC(=O)C(F)(F)C(F)(F)C(F)(F)C(F)F; settings: in DMSO
Procedure: as §1

[6] = compound: O=S(=O)(O)C(F)(F)C(F)(F)C(F)(F)C(F)(F)C(F)(F)C(F)(F)C(F)(F)C(F)(F)C(F)(F)C(F)(F)F [Sodium perfluorodecanesulfonate]; settings: in DMSO
Procedure: as §1

[7] = compound: O=S(=O)(O)CCC(F)(F)C(F)(F)C(F)(F)C(F)(F)C(F)(F)C(F)(F)F [6:2 Fluorotelomer sulfonic acid]; settings: in DMSO
Procedure: as §1

Row | Test System | level (log10) ([1]; 6700 nM) | level (log10) ([1]; 20000 nM) | level (log10) ([1]; 60000 nM) | level (log10) [2] | level (log10) ([3]; 6700 nM) | level (log10) ([3]; 20000 nM) | level (log10) ([3]; 60000 nM) | level (log10) ([4]; 6700 nM) | level (log10) ([4]; 20000 nM) | level (log10) ([4]; 60000 nM) | level (log10) ([5]; 6700 nM) | level (log10) ([5]; 20000 nM) | level (log10) ([5]; 60000 nM) | level (log10) ([6]; 1500 nM) | level (log10) ([6]; 4400 nM) | level (log10) ([6]; 13000 nM) | level (log10) ([6]; 40000 nM) | level (log10) ([7]; 6700 nM) | level (log10) ([7]; 20000 nM) | level (log10) ([7]; 60000 nM)
1 | CASM3C:M-CSF | -0.004 ± 0.011 | 0.002 ± 0.0014 | 0.024 ± 0.021 | -0.056 ± 0.021 | -0.0025 ± 0.012 | -0.0125 ± 0.011 | 0.0325 ± 0.056 | -0.0205 ± 0.029 | -0.015 ± 0.0042 | -0.014 ± 0.033 | -0.0485 ± 0.021 | -0.0535 ± 0.046 | 0.019 ± 0.082 | 0.0465 ± 0.0064 | 0.0285 ± 0.0035 | 0.03 ± 0.014 | 0.14 ± 0.079 | -0.011 ± 0.044 | -0.002 ± 0.0085 | 0.002 ± 0.037
2 | KF3CT:TIMP-2 | -0.0445 ± 0.0064 | 0.008 ± 0.013 | 0.022 ± 0.038 | -0.056 ± 0.021 | -0.0095 ± 0.0064 | -0.014 ± 0.013 | 0.003 ± 0.041 | 0.039 ± 0.0042 | -0.006 ± 0.016 | 0.0365 ± 0.06 | -0.006 ± 0.0057 | -0.005 ± 0.013 | 0.0015 ± 0.019 | -0.0205 ± 0.056 | -0.015 | 0.044 ± 0.02 | 0.005 ± 0.034 | -0.029 ± 0.0085 | -0.0035 ± 0.012 | 0.0015 ± 0.012
3 | CASM3C:Serum Amyloid A | -0.032 ± 0.023 | -0.051 ± 0.02 | -0.0425 ± 0.023 | -0.038 ± 0.0057 | -0.0115 ± 0.042 | -0.012 ± 0.013 | 0.031 ± 0.023 | 0.0025 ± 0.012 | 0.003 ± 0.035 | 0.032 ± 0.061 | -0.054 ± 0.071 | -0.0535 ± 0.026 | -0.003 ± 0.024 | -0.0545 ± 0.022 | -0.0135 ± 0.011 | 0.0365 ± 0.036 | 0.182 ± 0.028 | 0.019 ± 0.014 | 0.021 ± 0.03 | 0.017 ± 0.031
4 | MyoF:alpha-SM Actin | 0.003 ± 0.011 | -0.02 ± 0.038 | -0.0015 ± 0.018 | -0.208 ± 0.024 | 0.0205 ± 0.015 | 0.0035 ± 0.0064 | 0.0185 ± 0.0035 | 0.012 ± 0.028 | -0.0095 ± 0.039 | 0.0125 ± 0.08 | -0.006 ± 0.0057 | 0.0025 ± 0.023 | -0.002 ± 0.033 | 0.01 ± 0.0057 | -0.0065 ± 0.013 | 0.006 ± 0.025 | 0.0175 ± 0.0021 | 0.016 ± 0.018 | 0.001 ± 0.021 | -0.02 ± 0.082
5 | HDF3CGF:TIMP-2 | 0.0065 ± 0.087 | 0.018 ± 0.085 | 0.022 ± 0.082 | 0.0805 ± 0.016 | 0.0235 ± 0.012 | 0.0065 ± 0.00071 | -0.006 ± 0.02 | -0.0395 ± 0.16 | -0.061 ± 0.11 | -0.038 ± 0.1 | 0.015 ± 0.025 | 0.027 ± 0.033 | 0.003 ± 0.0028 | -0.026 ± 0.11 | 0.0395 ± 0.0035 | 0.005 ± 0.052 | -0.085 ± 0.089 | -0.021 ± 0.0099 | -0.0205 ± 0.032 | 0.0245 ± 0.029
6 | KF3CT:CXCL10/IP-10 | 0.019 ± 0.0057 | 0.0245 ± 0.013 | 0.031 ± 0.0014 | -0.023 ± 0.0085 | 0.0285 ± 0.00071 | 0.0305 ± 0.0035 | 0.0295 ± 0.0021 | -0.011 ± 0.027 | -0.012 ± 0.021 | -0.0175 ± 0.016 | -0.001 ± 0.0014 | -0.001 ± 0.013 | 0.0025 ± 0.0064 | 0 ± 0.023 | -0.021 ± 0.027 | -0.015 ± 0.025 | -0.0225 ± 0.0078 | -0.0105 ± 0.011 | -0.0055 ± 0.015 | -0.0135 ± 0.00071
7 | CASM3C:IL-6 | -0.0405 ± 0.035 | -0.046 ± 0.0042 | 0.005 ± 0.0028 | -0.0735 ± 0.00071 | -0.0375 ± 0.025 | -0.0335 ± 0.012 | 0.001 ± 0.089 | -0.0235 ± 0.022 | -0.012 ± 0.0099 | 0.009 ± 0.047 | -0.0315 ± 0.0064 | -0.0165 ± 0.012 | 0.017 ± 0.05 | -0.013 ± 0.018 | -0.053 ± 0.05 | 0.055 ± 0.0099 | 0.108 ± 0.018 | -0.003 ± 0.011 | -0.014 ± 0.0014 | 0.006 ± 0.017
8 | BE3C:MMP-9 | 0.014 ± 0.0071 | 0.015 ± 0.0042 | 0.025 ± 0.011 | -0.0485 ± 0.0078 | -0.036 ± 0.0042 | -0.036 | -0.004 ± 0.042 | -0.0065 ± 0.0078 | 0.015 ± 0.014 | -0.013 ± 0.0014 | -0.007 ± 0.0014 | -0.0045 ± 0.0092 | 0.0095 ± 0.023 | -0.0125 ± 0.04 | 0.0105 ± 0.005 | -0.0785 ± 0.013 | -0.302 ± 0.041 | -0.004 ± 0.021 | -0.0045 ± 0.0078 | 0.016 ± 0.021
9 | 3C:CXCL9/MIG | -0.001 ± 0.0014 | 0.0025 ± 0.012 | 0.0105 ± 0.023 | -0.017 ± 0.0085 | 0.0065 ± 0.0064 | -0.011 ± 0.0071 | 0.013 ± 0.0099 | -0.005 ± 0.0071 | -0.0135 ± 0.0064 | -0.0035 ± 0.022 | -0.0095 ± 0.011 | -0.012 ± 0.0014 | -0.0045 ± 0.0021 | -0.005 ± 0.0099 | -0.018 ± 0.011 | -0.0025 ± 0.0064 | 0.001 ± 0.0057 | -0.0065 ± 0.0021 | -0.009 ± 0.017 | -0.006 ± 0.0042
10 | CASM3C:CCL2/MCP-1 | -0.005 ± 0.0028 | -0.011 ± 0.0014 | -0.0015 ± 0.021 | 0 ± 0.0085 | 0.0035 ± 0.022 | 0 ± 0.031 | 0.034 ± 0.028 | -0.007 ± 0.023 | -0.0275 ± 0.00071 | 0.004 ± 0.014 | -0.0055 ± 0.013 | -0.011 ± 0.018 | 0.015 ± 0.045 | -0.022 ± 0.023 | -0.024 ± 0.0028 | 0.0115 ± 0.026 | 0.0095 ± 0.0064 | -0.0125 ± 0.011 | -0.01 | 0.0225 ± 0.032
11 | lMphg:CD106/VCAM-1 | -0.024 ± 0.013 | -0.007 ± 0.021 | -0.021 ± 0.011 | -0.0615 ± 0.025 | 0.0025 ± 0.012 | 0.005 ± 0.013 | -0.0015 ± 0.018 | 0.003 ± 0.011 | 0.012 ± 0.016 | 0.0095 ± 0.011 | 0 ± 0.013 | 0.006 ± 0.0014 | -0.003 ± 0.017 | -0.0065 ± 0.012 | -0.0215 ± 0.018 | -0.021 ± 0.0071 | -0.0515 ± 0.0078 | -0.007 ± 0.011 | -0.0125 ± 0.0092 | -0.022 ± 0.0071
12 | 3C:SRB | -0.004 ± 0.014 | -0.0025 ± 0.0078 | 0 ± 0.018 | -0.0305 ± 0.011 | 0.009 ± 0.0042 | 0.014 ± 0.0085 | 0.018 ± 0.0099 | 0.002 ± 0.035 | 0.0005 ± 0.018 | -0.0185 ± 0.0064 | -0.0075 ± 0.019 | -0.013 ± 0.0014 | -0.019 ± 0.023 | -0.0035 ± 0.0035 | -0.0155 ± 0.016 | -0.04 ± 0.021 | -0.191 ± 0.0028 | 0.001 ± 0.0099 | 0.002 ± 0.0057 | -0.0045 ± 0.028
